Laboratory results reported in US7556938B1, “Nucleic acids encoding potassium channel interactors” (Millennium Pharmaceuticals, Inc., priority 1998, dated 2009).

What was measured:
[1] = tested on: A-current in cultured primary cerebellar granule neurons; experiment: Arachidonic acid effects on the A-current in cultured primary cerebellar granule neurons; format: cell-based; conditions: 10 μM arachidonic acid, TEA (10 mM) applied, mean±SEM
Description: The arachidonic acid effects on the A-current were also investigated in a neuronal system (cultured primary cerebellar granule neurons) where both Kv4 and KChIPs are present. TEA (10 mM) was applied to block a small sustained outward component. Inactivation time constants of the A current in the absence and presence of 10 μM arachidonic acid were 44±5 ms and 21±3 ms (mean±SEM), respectively. The corresponding peak amplitude was reduced from 2.0±0.6 nA to 1.2±0.4 nA.

[2] = target: T1, Kv4.2 (Rattus norvegicus, UniProt Q63881); experiment: AA modulation of Kv4.2 current (Kv4.2 expressed alone) in CHO cells; format: cell-based; conditions: Kv4.2 alone, 10 μM AA
T1 construct: expressed in transfected cells; host or cells: CHO cells, transient transfection with GFP co-transfected
T1 sequence (Q63881 1-630): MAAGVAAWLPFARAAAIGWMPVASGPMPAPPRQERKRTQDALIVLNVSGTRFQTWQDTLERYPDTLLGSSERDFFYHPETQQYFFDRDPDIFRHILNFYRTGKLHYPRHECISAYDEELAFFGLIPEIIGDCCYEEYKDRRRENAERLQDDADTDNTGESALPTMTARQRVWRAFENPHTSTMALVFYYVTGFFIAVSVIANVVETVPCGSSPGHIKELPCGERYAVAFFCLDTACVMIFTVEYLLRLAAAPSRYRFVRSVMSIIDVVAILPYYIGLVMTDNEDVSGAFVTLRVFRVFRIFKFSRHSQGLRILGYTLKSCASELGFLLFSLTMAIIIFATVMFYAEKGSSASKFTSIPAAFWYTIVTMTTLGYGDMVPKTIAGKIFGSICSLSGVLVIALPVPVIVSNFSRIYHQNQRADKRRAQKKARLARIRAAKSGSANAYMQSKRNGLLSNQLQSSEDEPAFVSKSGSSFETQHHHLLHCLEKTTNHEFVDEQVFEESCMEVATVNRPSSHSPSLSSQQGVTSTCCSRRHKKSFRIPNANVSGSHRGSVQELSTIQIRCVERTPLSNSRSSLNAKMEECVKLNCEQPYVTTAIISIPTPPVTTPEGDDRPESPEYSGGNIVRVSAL
Description: HEK 293 and CHO cells were used for recordings 1-3 days after a transient transfection. Whole-cell currents were recorded from cells expressing GFP, identified by their green fluorescence. […] After Gigaseal and ruptured whole-cell configuration access, resistance was less than 10 MOhms. Whole-cell bath solutions were made from a 10× Hank's balanced salt solution (GibcoBRL) with the following final concentration (in mM): 138 NaCl, 5.4 KCl, 1.3 MgCl2, 1.3 CaCl2, 5.5 D-Glukos and 10 HEPES, pH 7.4. The intracellular electrode solution consisted of (in mM) 140 KCl, 10 HEPES, 10 EGTA, 0.5 MgCl2, pH 7.3. All chemicals were from Sigma (St. Louis, Mo.) or Fisher Scientific (Houston, Tex.). Membrane currents were recorded using a EPC9 patch-clamp amplifier (HEKA, Germany). Data were analyzed using Matlab (Natick, Ma), and leak subtracted if necessary. All experiments were done at room temperature. […]

[3] = tested on: Kv4 α subunits; conditions: in oocytes; Villarroel and Schwarz (1996); read-out: IC50 of arachidonic acid on Kv4 α subunits; cited from earlier work

CCCCC/C=C\C/C=C\C/C=C\C/C=C\CCCC(=O)O [arachidonic acid]
Inactivation time constant of the A current [1]: 21 ± 3 ms
peak amplitude of the A current [1]: 1.2±0.4 nA
Peak amplitude (pA ± SEM) [2]: 336 ± 82 pA
Inactivation time constant (ms ± SEM) ([2]; listed as AA): 32 ± 2 ms
IC50 [3]: ~8 µM
